{"source": "ChEMBL document CHEMBL1201862", "about": "“PubChem BioAssay data set” (2004)", "key": {"[1]": {"biological_target": "Kappa-type opioid receptor (Homo sapiens, UniProt P41145)", "sequence (P41145 whole entry)": "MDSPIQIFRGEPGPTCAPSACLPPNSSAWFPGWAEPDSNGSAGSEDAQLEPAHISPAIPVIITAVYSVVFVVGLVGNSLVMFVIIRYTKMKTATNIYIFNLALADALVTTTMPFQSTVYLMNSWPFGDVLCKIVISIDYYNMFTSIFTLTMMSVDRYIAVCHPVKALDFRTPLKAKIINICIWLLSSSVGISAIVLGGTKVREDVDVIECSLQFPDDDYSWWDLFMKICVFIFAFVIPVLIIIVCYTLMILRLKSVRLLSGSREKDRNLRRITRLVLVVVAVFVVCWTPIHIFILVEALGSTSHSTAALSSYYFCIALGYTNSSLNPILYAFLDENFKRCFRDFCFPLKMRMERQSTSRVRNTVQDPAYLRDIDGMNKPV", "assay": "Late-stage fluorescence-based cell-based dose response assay for antagonists of kappa opioid receptor 1 (OPRK1).", "format": "functional"}, "Mu-type opioid receptor": {"biological_target": "Mu-type opioid receptor (Homo sapiens, UniProt P35372)", "sequence (P35372 whole entry)": "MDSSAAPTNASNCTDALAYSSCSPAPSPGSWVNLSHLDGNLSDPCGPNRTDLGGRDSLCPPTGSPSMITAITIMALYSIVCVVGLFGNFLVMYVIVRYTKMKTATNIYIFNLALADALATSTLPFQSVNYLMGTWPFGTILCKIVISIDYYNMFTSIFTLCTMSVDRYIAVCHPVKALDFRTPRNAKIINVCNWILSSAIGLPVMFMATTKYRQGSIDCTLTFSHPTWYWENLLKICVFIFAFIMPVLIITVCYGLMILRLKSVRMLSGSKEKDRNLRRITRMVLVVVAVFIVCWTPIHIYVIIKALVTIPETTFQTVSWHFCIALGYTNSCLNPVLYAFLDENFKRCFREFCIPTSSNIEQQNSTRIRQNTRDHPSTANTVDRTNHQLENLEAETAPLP", "assay": "Late-stage results from the probe development effort to identify antagonists of OPRK1: luminescence-based cell-based dose response OPRM1 counterscreen, Set 2.", "format": "functional"}, "[2]": {"biological_target": "Delta-type opioid receptor (Homo sapiens, UniProt P41143)", "sequence (P41143 whole entry)": "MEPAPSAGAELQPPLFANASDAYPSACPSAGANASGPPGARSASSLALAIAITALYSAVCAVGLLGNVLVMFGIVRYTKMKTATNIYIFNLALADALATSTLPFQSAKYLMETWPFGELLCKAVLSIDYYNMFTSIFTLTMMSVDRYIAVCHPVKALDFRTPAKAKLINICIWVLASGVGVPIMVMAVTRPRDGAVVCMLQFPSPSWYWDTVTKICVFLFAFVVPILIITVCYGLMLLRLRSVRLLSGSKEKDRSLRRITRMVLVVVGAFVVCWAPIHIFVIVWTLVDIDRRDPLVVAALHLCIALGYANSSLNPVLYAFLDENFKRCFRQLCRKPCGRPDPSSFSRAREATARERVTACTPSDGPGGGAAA", "assay": "Late-stage results from the probe development effort to identify antagonists of OPRK1: fluorescence-based cell-based dose response OPRD1 counterscreen, Set 2.", "format": "functional"}, "[3]": {"biological_target": "Sphingosine 1-phosphate receptor 1 (Homo sapiens, UniProt P21453)", "sequence (P21453 whole entry)": "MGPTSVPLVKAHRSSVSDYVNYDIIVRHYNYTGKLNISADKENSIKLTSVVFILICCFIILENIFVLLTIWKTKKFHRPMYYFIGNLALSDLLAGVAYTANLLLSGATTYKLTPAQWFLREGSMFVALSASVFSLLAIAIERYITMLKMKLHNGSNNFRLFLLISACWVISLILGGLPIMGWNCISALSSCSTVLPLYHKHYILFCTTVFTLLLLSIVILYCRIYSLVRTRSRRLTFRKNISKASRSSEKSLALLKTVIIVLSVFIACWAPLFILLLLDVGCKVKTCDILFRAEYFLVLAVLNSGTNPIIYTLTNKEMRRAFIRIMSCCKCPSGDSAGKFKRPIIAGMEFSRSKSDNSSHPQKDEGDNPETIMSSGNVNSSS", "assay": "Late-stage counterscreen for antagonists of kappa opioid receptor 1 (OPRK1): fluorescence-based cell-based dose response assay to identify antagonists of Sphingosine 1-Phosphate Receptor 1 (S1P1).", "format": "functional"}, "[4]": {"assay": "inhibitors of non-replicating M. tuberculosis, dose response, luciferase, dry powder (AID 651619)", "format": "functional", "conditions": "Mycobacterium tuberculosis"}, "[5]": {"assay": "viability loss in HEK293T cells – cell-based, CellTiter-Glo luminescence, dry powder, set 6, cytotoxicity control, dose response (AID 651949)", "format": "functional", "conditions": "HEK293"}, "[6]": {"assay": "inhibitors of non-replicating M. tuberculosis, dose response, luciferase, dry powder (AID 651620)", "format": "functional", "conditions": "Mycobacterium tuberculosis"}, "[7]": {"assay": "growth inhibition of replicating M. tuberculosis, dose response, counter-screen, dry powder, IC90 (AID 651617)", "format": "functional", "conditions": "Mycobacterium tuberculosis"}, "[8]": {"biological_target": "Glucose-6-phosphate 1-dehydrogenase (Homo sapiens, UniProt P11413)", "sequence (P11413 whole entry)": "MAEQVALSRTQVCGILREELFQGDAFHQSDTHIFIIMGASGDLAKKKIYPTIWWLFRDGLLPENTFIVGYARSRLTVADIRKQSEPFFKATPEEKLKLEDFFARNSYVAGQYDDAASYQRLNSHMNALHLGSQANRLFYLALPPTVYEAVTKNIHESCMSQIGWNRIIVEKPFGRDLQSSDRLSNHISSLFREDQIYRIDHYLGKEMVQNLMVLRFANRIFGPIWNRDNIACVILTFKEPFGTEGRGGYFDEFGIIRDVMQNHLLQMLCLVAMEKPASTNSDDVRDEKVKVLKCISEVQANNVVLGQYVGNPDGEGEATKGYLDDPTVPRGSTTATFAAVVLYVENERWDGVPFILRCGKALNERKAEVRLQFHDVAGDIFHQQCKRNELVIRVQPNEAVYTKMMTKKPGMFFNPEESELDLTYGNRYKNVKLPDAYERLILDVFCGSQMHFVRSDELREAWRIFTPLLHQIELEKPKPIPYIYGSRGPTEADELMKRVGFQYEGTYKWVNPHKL", "assay": "inhibition of Homo sapiens G6PD, dose series – biochemical, fluorescence, selectivity assay for P. falciparum G6PD inhibitor project, dose response (AID 504792)", "format": "functional"}, "[9]": {"assay": "viability loss in HeLa cells – cytotoxicity control for MgcRacGAP inhibitor project, dose response (AID 624300)", "format": "functional"}, "[10]": {"assay": "blockers of FN fibrillogenesis by fibroblasts – AH1F cells, Alexa488-FN fluorescence, cherry-picks, dose response (AID 1035475)", "format": "functional, cell-based"}, "[11]": {"biological_target": "T1, Microphthalmia-associated transcription factor (Homo sapiens, UniProt O75030)", "T1 sequence (O75030 whole entry)": "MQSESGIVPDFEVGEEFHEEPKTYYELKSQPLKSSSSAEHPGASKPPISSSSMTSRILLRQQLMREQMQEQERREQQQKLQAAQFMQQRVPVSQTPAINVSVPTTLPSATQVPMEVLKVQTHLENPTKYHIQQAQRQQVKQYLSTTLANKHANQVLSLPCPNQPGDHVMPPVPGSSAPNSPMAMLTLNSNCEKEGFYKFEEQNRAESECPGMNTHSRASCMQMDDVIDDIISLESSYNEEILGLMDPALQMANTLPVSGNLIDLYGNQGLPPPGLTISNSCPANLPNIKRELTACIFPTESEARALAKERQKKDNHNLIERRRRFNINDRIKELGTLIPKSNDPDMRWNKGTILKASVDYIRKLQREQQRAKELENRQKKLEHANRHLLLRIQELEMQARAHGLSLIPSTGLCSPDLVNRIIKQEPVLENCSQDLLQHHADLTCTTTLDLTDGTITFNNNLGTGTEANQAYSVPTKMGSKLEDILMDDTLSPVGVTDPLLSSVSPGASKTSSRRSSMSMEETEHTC", "assay": "reducers of TRPM1 reporter luminescence, concentration series – cell-based, SK-MEL-5, cherry-picked, set 3, MITF inhibitor project, dose response (AID 493073);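 note: SK-MEL-5 melanoma cells with luciferase driven by the MITF target TRPM1 promoter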", "format": "functional"}, "A-375": {"system": "A-375", "assay": "MITF: Counter assay: A375 proliferation Measured in Cell-Based System Using Plate Reader - 2084-03_Inhibitor_Dose_DryPowder_Activity. [Related pubchem assays (depositor defined):AID488944]", "format": "functional", "conditions": "Homo sapiens"}, "[12]": {"biological_target": "SWI/SNF-related matrix-associated actin-dependent regulator of chromatin subfamily A member 2 (Homo sapiens, UniProt P51531)", "sequence (P51531 whole entry)": "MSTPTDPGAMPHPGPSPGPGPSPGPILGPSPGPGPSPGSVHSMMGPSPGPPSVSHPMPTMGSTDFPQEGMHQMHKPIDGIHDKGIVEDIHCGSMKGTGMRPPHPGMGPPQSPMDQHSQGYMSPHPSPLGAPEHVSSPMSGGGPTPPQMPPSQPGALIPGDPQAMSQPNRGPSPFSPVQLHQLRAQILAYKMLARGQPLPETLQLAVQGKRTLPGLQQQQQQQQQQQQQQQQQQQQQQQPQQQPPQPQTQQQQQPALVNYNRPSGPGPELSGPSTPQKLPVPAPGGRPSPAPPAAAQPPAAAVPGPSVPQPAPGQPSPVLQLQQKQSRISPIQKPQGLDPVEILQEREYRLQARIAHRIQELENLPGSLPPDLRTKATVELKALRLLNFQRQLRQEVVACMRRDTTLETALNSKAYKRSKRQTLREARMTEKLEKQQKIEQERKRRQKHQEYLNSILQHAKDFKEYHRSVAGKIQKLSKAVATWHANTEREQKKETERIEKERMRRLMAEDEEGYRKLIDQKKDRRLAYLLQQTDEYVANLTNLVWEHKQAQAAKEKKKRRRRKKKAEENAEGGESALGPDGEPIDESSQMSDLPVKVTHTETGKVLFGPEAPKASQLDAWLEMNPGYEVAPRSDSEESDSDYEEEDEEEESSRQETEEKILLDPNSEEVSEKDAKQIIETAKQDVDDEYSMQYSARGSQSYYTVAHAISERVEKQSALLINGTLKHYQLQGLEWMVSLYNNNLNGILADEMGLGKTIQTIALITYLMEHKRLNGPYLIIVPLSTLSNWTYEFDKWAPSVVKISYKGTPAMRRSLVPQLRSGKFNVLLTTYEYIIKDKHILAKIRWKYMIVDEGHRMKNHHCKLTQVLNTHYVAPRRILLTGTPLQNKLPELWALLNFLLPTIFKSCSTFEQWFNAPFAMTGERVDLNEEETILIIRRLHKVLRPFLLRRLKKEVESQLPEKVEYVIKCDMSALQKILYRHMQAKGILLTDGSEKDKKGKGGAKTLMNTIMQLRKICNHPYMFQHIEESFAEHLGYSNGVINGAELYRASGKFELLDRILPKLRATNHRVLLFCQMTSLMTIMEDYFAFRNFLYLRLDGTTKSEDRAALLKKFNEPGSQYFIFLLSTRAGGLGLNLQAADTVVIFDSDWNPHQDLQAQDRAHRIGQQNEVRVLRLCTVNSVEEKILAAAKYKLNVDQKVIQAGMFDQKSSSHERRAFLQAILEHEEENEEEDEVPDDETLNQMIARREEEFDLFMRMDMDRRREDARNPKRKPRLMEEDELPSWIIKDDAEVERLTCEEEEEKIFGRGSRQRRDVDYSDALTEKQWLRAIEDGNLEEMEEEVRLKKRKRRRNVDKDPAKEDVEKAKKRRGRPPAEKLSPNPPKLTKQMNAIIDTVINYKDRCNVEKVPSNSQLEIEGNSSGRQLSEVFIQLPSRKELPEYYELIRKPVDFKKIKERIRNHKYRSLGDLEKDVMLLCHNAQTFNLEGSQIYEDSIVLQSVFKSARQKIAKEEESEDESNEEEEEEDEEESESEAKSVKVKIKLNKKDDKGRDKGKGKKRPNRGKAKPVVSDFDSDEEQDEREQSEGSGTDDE", "assay": "Luminescence-based cell-based high throughput dose response assay to identify activators of the function of SWI/SNF related, matrix associated, actin dependent regulator of chromatin, subfamily a, member 2 (SMARCA2, BRM).", "format": "functional"}, "[13]": {"assay": "Counterscreen for activators of the function of SWI/SNF related, matrix associated, actin dependent regulator of chromatin, subfamily a, member 2 (SMARCA2, BRM): Luminescence-based cell-based high throughput dose response assay to identify non-selective compounds using the VP16 reporter assay.", "format": "functional"}, "[14]": {"assay": "viability loss in HepG2 liver cells – cell-based, ATP luminescence, cherry-pick, set 6, cytotoxicity control, dose response (AID 1053125)", "format": "functional"}, "cells [15]": {"assay": "cells", "conditions": "A549"}, "cells [16]": {"assay": "cells", "conditions": "HEK293"}, "[17]": {"assay": "Luminescence Cell-Based Dose Retest to Confirm Inhibitors of Cancer Stem Cells. [Related pubchem assays (depositor defined):AID2717, AID2721]", "format": "functional", "conditions": "Homo sapiens"}, "Protein skinhead-1": {"biological_target": "T2, Protein skinhead-1 (Caenorhabditis elegans, UniProt P34707)", "T2 sequence (P34707 whole entry)": "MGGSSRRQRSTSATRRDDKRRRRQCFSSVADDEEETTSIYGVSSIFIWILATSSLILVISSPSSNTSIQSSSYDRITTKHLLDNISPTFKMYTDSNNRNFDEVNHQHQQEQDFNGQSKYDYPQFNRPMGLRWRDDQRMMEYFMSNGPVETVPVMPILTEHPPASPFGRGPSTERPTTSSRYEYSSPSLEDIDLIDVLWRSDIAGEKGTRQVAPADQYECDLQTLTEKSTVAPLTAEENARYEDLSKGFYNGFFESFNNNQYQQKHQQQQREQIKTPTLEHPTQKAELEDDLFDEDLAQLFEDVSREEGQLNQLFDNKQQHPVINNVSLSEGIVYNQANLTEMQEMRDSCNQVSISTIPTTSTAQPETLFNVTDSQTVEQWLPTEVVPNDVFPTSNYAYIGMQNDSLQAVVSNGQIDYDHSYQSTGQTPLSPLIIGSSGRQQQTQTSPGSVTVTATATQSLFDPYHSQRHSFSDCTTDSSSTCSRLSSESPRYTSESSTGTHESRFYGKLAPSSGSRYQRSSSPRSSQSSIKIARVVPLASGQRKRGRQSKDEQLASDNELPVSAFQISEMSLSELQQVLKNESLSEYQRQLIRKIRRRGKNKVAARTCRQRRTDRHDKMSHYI", "format": "functional"}, "[18]": {"assay": "Luminescence-based cell-based high throughput dose response assay to identify activators of the DAF-12 from the parasite S. stercoralis (ssDAF-12).", "format": "functional"}, "[19]": {"biological_target": "T3, Oxysterols receptor LXR-beta (Homo sapiens, UniProt P55055)", "T3 sequence (P55055 whole entry)": "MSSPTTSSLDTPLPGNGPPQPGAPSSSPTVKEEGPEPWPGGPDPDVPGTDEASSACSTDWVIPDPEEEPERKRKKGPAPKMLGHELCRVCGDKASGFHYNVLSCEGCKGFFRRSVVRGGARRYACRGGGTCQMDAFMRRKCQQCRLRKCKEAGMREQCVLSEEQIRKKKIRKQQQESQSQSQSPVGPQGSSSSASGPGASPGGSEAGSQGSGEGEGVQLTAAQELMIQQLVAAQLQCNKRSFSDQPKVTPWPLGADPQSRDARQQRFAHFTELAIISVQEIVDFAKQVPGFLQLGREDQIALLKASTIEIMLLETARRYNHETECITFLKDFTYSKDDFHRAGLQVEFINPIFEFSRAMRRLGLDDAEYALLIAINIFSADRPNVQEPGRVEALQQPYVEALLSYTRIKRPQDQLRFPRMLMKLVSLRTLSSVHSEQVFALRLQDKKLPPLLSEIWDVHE", "assay": "LXR agonists, Gal4 luciferase reporter, dose response, counter-screen for ssDAF-12 agonist project, cell-based, luminescence, HEK293, S. stercoralis campaign (AID 720737)", "format": "functional", "conditions": "read-out: IC50 (the source's name)"}, "[20]": {"assay": "viability loss in HepG2 hepatoma cells – cell-based, ATP luminescence, cherry-pick, activator set 2, cytotoxicity control, dose response (AID 1053143)", "format": "functional"}, "[21]": {"biological_target": "T3, Oxysterols receptor LXR-beta", "format": "functional, cell-based"}}, "note": "Calls of active or inactive are those of the source."}
{"smiles": "CN(C)c1cccc2c1c(NC(=O)Nc1ccc(OCc3ccccc3)cc1)nn2C", "values": [{"measurement": "IC50", "setting": "[1]", "value": "1.82 µM (active)"}, {"measurement": "IC50", "setting": "Mu-type opioid receptor", "value": "42.9 µM (inactive)"}, {"measurement": "IC50", "setting": "[2]", "value": "4.38 µM (active)"}, {"measurement": "IC50", "setting": "[3]", "value": "34.9 µM (inactive)"}]}
{"smiles": "Fc1ccc(Cn2cc(CSc3nnc(C4CCC4)o3)nn2)cc1", "values": [{"measurement": "IC90", "setting": "[4]", "value": "4 µM (active)"}, {"measurement": "AC50", "setting": "[5]", "value": "47.1 µM (active)"}, {"measurement": "IC90", "setting": "[6]", "value": "4 µM (active)"}, {"measurement": "IC90", "setting": "[7]", "value": "250 µM (active)"}]}
{"smiles": "O=C(Nc1nc(-c2ccncc2)cs1)C1COc2ccccc2O1", "note": "(centres undefined)", "values": [{"measurement": "IC50", "setting": "[8]", "value": "> 80 µM (inactive)"}, {"measurement": "CC50", "setting": "[9]", "value": "100 µM (active)"}, {"measurement": "AC50", "setting": "[10]", "value": "0.512 µM (active)"}]}
{"smiles": "c1ccc2cc3c(NCCN4CCOCC4)ccnc3cc2c1", "values": [{"measurement": "AC50", "setting": "[11]", "value": "2.91 µM (active)"}, {"measurement": "AC50", "setting": "A-375", "value": "21.2 µM (active)"}, {"measurement": "EC50", "setting": "[12]", "value": "11.1 µM (inactive)"}, {"measurement": "EC50", "setting": "[13]", "value": "> 91.2 µM (inactive)"}, {"measurement": "AC50", "setting": "[14]", "value": "12 µM (active)"}, {"measurement": "AC50", "setting": "cells [15]", "value": "6.11 µM (active)"}, {"measurement": "AC50", "setting": "cells [16]", "value": "9.44 µM (active)"}]}
{"smiles": "Oc1cccc(/C=C/c2ccc3cccc(O)c3n2)c1", "values": [{"measurement": "AC50", "setting": "[17]", "value": "3.91 µM (active)"}, {"measurement": "IC50", "setting": "Protein skinhead-1", "value": "> 100 µM (inactive)"}, {"measurement": "IC50", "setting": "[18]", "value": "> 67.6 µM (inactive)"}, {"measurement": "EC50", "setting": "[19]", "value": "> 67.6 µM (inactive)"}, {"measurement": "AC50", "setting": "[20]", "value": "26 µM (active)"}, {"measurement": "EC50", "setting": "[21]", "value": "> 67.6 µM (inactive)"}]}
